The source of these data is US7863271B2, “2-aminobenzoxazole carboxamides as 5HT3 modulators” (Albany Molecular Research, Inc., priority 2006, dated 2011).

Structures can show the parent of a compound that is named as a salt.

The target in one test is T1, 5-HT3 (Homo sapiens, UniProt P46098).
T1 sequence (P46098 24-478): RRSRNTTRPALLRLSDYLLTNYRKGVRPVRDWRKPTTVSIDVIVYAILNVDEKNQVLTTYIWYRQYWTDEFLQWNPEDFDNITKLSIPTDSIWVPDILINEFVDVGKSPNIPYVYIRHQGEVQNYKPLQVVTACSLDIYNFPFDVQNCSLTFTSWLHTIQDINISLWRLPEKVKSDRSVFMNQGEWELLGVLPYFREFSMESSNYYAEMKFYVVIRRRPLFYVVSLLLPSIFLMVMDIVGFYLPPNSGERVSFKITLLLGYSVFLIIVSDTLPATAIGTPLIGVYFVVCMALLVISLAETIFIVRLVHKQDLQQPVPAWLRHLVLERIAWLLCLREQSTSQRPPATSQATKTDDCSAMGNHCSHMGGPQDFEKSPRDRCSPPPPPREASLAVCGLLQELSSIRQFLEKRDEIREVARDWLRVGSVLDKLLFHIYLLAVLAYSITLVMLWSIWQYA
The test is described as follows: Compound affinity for the human 5-HT3 receptor (Assay B), SPA radioligand binding with [9-methyl-3H]BRL-43694. Conditions: Assay B (method B unless otherwise annotated); read-out: 5-HT3 Ki. The arrangement: purchased Perkin Elmer. In short, it runs like this:
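Ten competitor concentrations in duplicate; specific binding (total minus nonspecific) fitted for IC50, converted to Ki by Cheng-Prusoff.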
Regarding `Cc1cc(C(=O)N[C@H]2C[C@H]3CCC[C@@H](C2)N3C)c2nc(N)oc2c1` [Example 129, Endo-2-amino-6-methyl-N-(9-Methyl-9-azabicyclo[3.3.1]nonan-3-yl)benzoxazole-4-carboxamide Hydrochloride], the Ki amounted to 10.7 nM.

On to `C[C@H]1CN(C(=O)C(C)(C)C)C[C@H](C)N1c1nc2c(C(=O)NC3CC4CCCC(C3)N4C)cccc2o1` (stereo partly drawn) [Example 130, Endo-N-(9-methyl-9-azabicyclo[3.3.1]nonan-3-yl)-2-((2S,6S)-2,6-dimethyl-4-pivaloylpiperazin-1-yl)benzoxazole-4-carboxamide Hydrochloride], for which the inhibition constant (Ki) was found to be 2.8 nM.

`C[C@H]1CN(S(C)(=O)=O)C[C@H](C)N1c1nc2c(C(=O)NC3CC4CCCC(C3)N4C)cccc2o1` (stereo partly drawn) [Example 131, Endo-N-(9-methyl-9-azabicyclo[3.3.1]nonan-3-yl)-2-((2S,6S-2,6-dimethyl-4-(methylsulfonyl)piperazin-1-yl)benzoxazole-4-carboxamide Hydrochloride]: the inhibitory constant (Ki) was determined as 1 nM.

Regarding `C[C@H]1CN(C(=O)C2CCCCC2)C[C@H](C)N1c1nc2c(C(=O)NC3CC4CCCC(C3)N4C)cccc2o1` (stereo partly drawn) [Example 132, Endo-N-(9-methyl-9-azabicyclo[3.3.1]nonan-3-yl)-2-((2S,6S)-4-(cyclohexanecarbonyl)-2,6-dimethylpiperazin-1-yl)benzoxazole-4-carboxamide Hydrochloride], the inhibition constant Ki came to 1.9 nM.

Regarding `C[C@H]1CN(C(=O)C2CCCC2)C[C@H](C)N1c1nc2c(C(=O)NC3CC4CCCC(C3)N4C)cccc2o1` (stereo partly drawn) [Example 133, Endo-N-(9-methyl-9-azabicyclo[3.3.1]nonan-3-yl)-2-((2S,6S-4-(cyclopentanecarbonyl)-2,6-dimethylpiperazin-1-yl)benzoxazole-4-carboxamide Hydrochloride], the Ki was found to be 1.8 nM.

Regarding `CCC(=O)N1C[C@H](C)N(c2nc3c(C(=O)NC4CC5CCCC(C4)N5C)cccc3o2)[C@@H](C)C1` (stereo partly drawn) [Example 134, Endo-N-(9-methyl-9-azabicyclo[3.3.1]nonan-3-yl)-2-((2S,6S)-2,6-dimethyl-4-propionylpiperazin-1-yl)benzoxazole-4-carboxamide Hydrochloride], the inhibition constant (Ki) amounted to 1.7 nM.

As for `CC(C)C(=O)N1C[C@H](C)N(c2nc3c(C(=O)NC4CC5CCCC(C4)N5C)cccc3o2)[C@@H](C)C1` (stereo partly drawn) [Example 135, Endo-N-(9-methyl-9-azabicyclo[3.3.1]nonan-3-yl)-2-((2S,6S)-4-isobutyryl-2,6-dimethylpiperazin-1-yl)benzoxazole-4-carboxamide Hydrochloride], the Ki was determined as 2 nM.

In the case of `C[C@H]1CN(C(=O)N(C)C)C[C@H](C)N1c1nc2c(C(=O)NC3CC4CCCC(C3)N4C)cccc2o1` (stereo partly drawn) [Example 136, Endo-N-(9-methyl-9-azabicyclo[3.3.1]nonan-3-yl)-2-((2S,6S)-2,6-dimethyl-4-(dimethylcarbamoyl)piperazin-1-yl)benzoxazole-4-carboxamide Hydrochloride], the Ki was found to be 2.6 nM.

As for `C[C@H]1CN(CC(F)(F)F)C[C@H](C)N1c1nc2c(C(=O)NC3CC4CCCC(C3)N4C)cccc2o1` (stereo partly drawn) [Example 137, Endo-N-(9-methyl-9-azabicyclo[3.3.1]nonan-3-yl)-2-((2S,6S)-2,6-dimethyl-4-(2,2,2-trifluoroethyl)piperazin-1-yl)benzoxazole-4-carboxamide Hydrochloride], the Ki is 1.8 nM.

For the compound `CC(C)COC(=O)N1C[C@H](C)N(c2nc3c(C(=O)NC4CC5CCCC(C4)N5C)cccc3o2)[C@@H](C)C1` (stereo partly drawn) [Example 138, Endo-N-(9-methyl-9-azabicyclo[3.3.1]nonan-3-yl)-2-((2S,6S)-4-(isobutoxycarbonyl)-2,6-dimethylpiperazin-1-yl)benzoxazole-4-carboxamide Hydrochloride], the Ki worked out at 2.4 nM.

As for `Nc1nc2c(C(=O)NC3CN4CCC3CC4)c(F)ccc2o1` [Example 139, (S)—N-(quinulidin-8-yl)-2-amino-5-fluorobenzoxazole-4-carboxamide Hydrochloride], the inhibition constant (Ki) was 67.4 nM.

For the compound `C[C@H]1CN(C(=O)N2CCCC2)C[C@H](C)N1c1nc2c(C(=O)NC3CC4CCCC(C3)N4C)cccc2o1` (stereo partly drawn) [Example 140, Endo-N-(9-methyl-9-azabicyclo[3.3.1]nonan-3-yl)-2-((2S,6S)-2,6-dimethyl-4-(pyrrolidine-1-carbonyl)piperazin-1-yl)benzoxazole-4-carboxamide hydrochloride], the inhibition constant (Ki) is 2.2 nM.

`C[C@H]1CN(C(=O)N2CCCCC2)C[C@H](C)N1c1nc2c(C(=O)NC3CC4CCCC(C3)N4C)cccc2o1` (stereo partly drawn) [Example 141, Endo-N-(9-methyl-9-azabicyclo[3.3.1]nonan-3-yl)-2-((2S,6S)-2,6-dimethyl-4-(piperidine-1-carbonyl)piperazin-1-yl)benzoxazole-4-carboxamide hydrochloride]: the Ki amounted to 1.8 nM.

In the case of `C[C@H]1CN(Cc2ccccc2)C(=O)[C@H](C)N1c1nc2c(C(=O)N[C@@H]3CN4CCC3CC4)cccc2o1` [Example 142, (S)—N-(quinuclidine-8-yl) 2-((2S,6S)-4-benzyl-2,6-dimethyl-3-oxopiperazine-1-yl)benzoxazole-4-carboxamide Hydrochloride], the Ki came to 11.5 nM.

As to `CC(C)OC(=O)N1C[C@H](C)N(c2nc3c(C(=O)NC4CC5CCCC(C4)N5C)cccc3o2)[C@@H](C)C1` (stereo partly drawn) [Example 143, Endo-N-(9-methyl-9-azabicyclo[3.3.1]nonan-3-yl)-2-((2S,6S)-4-(isopropoxycarbonyl)-2,6-dimethylpiperazin-1-yl)benzoxazole-4-carboxamide Hydrochloride], the Ki stood at 1.4 nM.

With `CCOC(=O)N1C[C@H](C)N(c2nc3c(C(=O)NC4CC5CCCC(C4)N5C)cccc3o2)[C@@H](C)C1` (stereo partly drawn) [Example 144, Endo-N-(9-methyl-9-azabicyclo[3.3.1]nonan-3-yl)-2-((2S,6S)-4-(ethoxycarbonyl)-2,6-dimethylpiperazin-1-yl)benzoxazole-4-carboxamide Hydrochloride], the inhibition constant Ki amounted to 1 nM.

For the compound `Cc1nc[nH]c1CNC(=O)c1cc(Cl)cc2oc(N)nc12` [Example 145, N-((4-methyl-1H-imidazol-5-yl)methyl)-2-amino-6-chlorobenzoxazole-4-carboxamide], the Ki came to 127 nM.

For the compound `CC1CN(C(=O)N2CCCC2)CC(C)N1c1nc2c(C(=O)NC3CC4CCCC(C3)N4)cccc2o1` [Example 146, Endo-N-(9-azabicyclo[3.3.1]nonan-3-yl)-2-((2S,6S)-2,6-dimethyl-4-(pyrrolidine-1-carbonyl)piperazin-1-yl)benzoxazole-4-carboxamide hydrochloride], the Ki came to 32.2 nM.

Regarding `C[C@H]1CN(Cc2ccccc2)C[C@H](C)N1c1nc2c(C(=O)NC3CC4CCCC(C3)N4C)cccc2o1` (stereo partly drawn) [Example 148, Endo-N-(9-methyl-9-azabicyclo[3.3.1]nonan-3-yl)-2-((2S,6S)-4-benzyl-2,6-dimethylpiperazin-1-yl)benzoxazole-4-carboxamide Hydrochloride], the inhibition constant Ki was found to be 1.6 nM.

Regarding `CC[C@@H]1COCCN1c1nc2c(C(=O)NC3CC4CCCC(C3)N4C)cccc2o1` (stereo partly drawn) [Example 151, Endo-N-(9-Methyl-9-azabicyclo[3.3.1]nonan-3-yl)-2-((R)-3-ethylmorpholino)-benzoxazole-4-carboxamide Hydrochloride], the inhibition constant (Ki) worked out at 34 nM.

Consider `CC(C)[C@@H]1COCCN1c1nc2c(C(=O)NC3CC4CCCC(C3)N4C)cccc2o1` (stereo partly drawn) [Example 152, Endo-N-(9-Methyl-9-azabicyclo[3.3.1]nonan-3-yl)-2-((R)-3-isopropylmorpholino)benzoxazole-4-carboxamide Hydrochloride], for which the Ki is 75 nM.

Take “Endo-N-(9-Methyl-9-azabicyclo[3.3.1]nonan-3-yl)-2-((3aS,6aS)-hexahydropyrrolo[3,4-b]pyrrol-5(1H)-yl)benzoxazole-4-carboxamide Hydrochloride [Example 46]”: the Ki stood at 284 nM.

Another test deals with T2, 5-HT3 receptors (Mus musculus, UniProt P23979).
T2 construct: from tissue; host or cells: whole animal: male or female CD-1(Crl.) mice
T2 sequence (P23979 24-489): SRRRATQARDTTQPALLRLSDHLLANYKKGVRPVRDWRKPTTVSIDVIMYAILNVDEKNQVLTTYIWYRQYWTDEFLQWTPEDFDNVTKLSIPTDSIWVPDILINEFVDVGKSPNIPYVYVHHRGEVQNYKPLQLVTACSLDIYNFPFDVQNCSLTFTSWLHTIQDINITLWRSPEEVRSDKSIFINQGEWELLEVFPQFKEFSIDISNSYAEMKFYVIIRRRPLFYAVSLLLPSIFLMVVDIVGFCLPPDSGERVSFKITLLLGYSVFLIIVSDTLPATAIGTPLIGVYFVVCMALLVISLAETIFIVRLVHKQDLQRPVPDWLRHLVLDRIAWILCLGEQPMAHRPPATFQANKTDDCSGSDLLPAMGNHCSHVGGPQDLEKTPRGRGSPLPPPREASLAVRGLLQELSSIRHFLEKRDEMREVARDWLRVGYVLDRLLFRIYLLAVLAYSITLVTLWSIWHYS
The test is described as follows: Bezold-Jarisch assay in vivo: inhibition of serotonin induced bradycardia. To be noted: 1 mg/kg p.o., 5-HT (0.1 mg/kg IV)-induced bradycardia 60 min later, read-out: % Inhibition @ dose of test substance (p.o.). How it is done: Bezold-Jarisch Assay in vivo. […] Arch. Int. Pharmacodyn. 277: 235-252, 1985]. Test substances and vehicle [2% Tween 80] were each administered orally (0.3 to 3 mg/kg) to a group of 5 male or female CD-1(Crl.) mice each weighing 24±2 g. A dosing volume of 10 mL/kg was used. Sixty minutes later, 5-HT (0.1 mg/kg IV)-induced bradycardia was recorded in urethane (2225-2500 mg/kg IP, given 10 minutes before 5-HT)-anesthetized animals.
In vivo 5-HT3 Antagonism in the mouse (Bradycardia Reflex)
With `C[C@H]1COCCN1c1nc2c(C(=O)NC3CC4CCCC(C3)N4C)cccc2o1` (stereo partly drawn) [Example 49, Endo-N-(9-Methyl-9-azabicyclo[3.3.1]nonan-3-yl)-2-((S)-3-methylmorpholino)benzoxazole-4-carboxamide Hydrochloride], the inhibition at 1 mg/kg came out at 86%.
